Reference: US5641780A, “Pyrrolo-indole derivatives” (priority 1994, dated 1997)
Like-named read-outs stand apart in the source and are kept apart here.

Assays:
[1] = tested on: melanoma B-16; conditions: cited from earlier work
[2] = tested on: various bacteria; conditions: cited from earlier work
[3] = tested on: Sarcoma 180 tumor; assay: Therapeutic Effect on Sarcoma 180 Tumor; format: in vivo, male ddY-strain mice; conditions: Mus musculus, determined seven days after implantation; for response vs control in vivo at 8 mg/kg: read-out: T/C (average tumor volume treated / control), dose 8.0 mg/kg, intravenous, one day after implantation
Protocol: Five male ddY-strain mice each weighing 18-20 g were used for each group as test animals, and 5×10^5 Sarcoma 180 tumor cells were implantedat the axilla subcutaneously. One day after the implantation, 0.2 ml of a physiological saline containing Compound (I) at the concentration shown in Table 3 was intravenously administered to each mouse. T/C [T: average tumor volume (mm^3) of the group treated with the test compound, C: average tumor volume (mm^3) of the control group (to which 0.2 ml of a physiological saline was intravenously administered)] was determined seven days after the implantation.

[4] = tested on: HeLaS3 cells; assay: Growth Inhibitory Effect Against HeLaS3 cells; format: cell-based; conditions: Homo sapiens
Protocol: HeLaS3 cells were suspended in MEM medium containing 10% fetal calf serum and 2 mM glutamine to a concentration of 2.67×10^4 cells/ml. The cell suspension thus prepared was put into wells of a 24-well culture plate in an amount of 0.75 ml per well. After the cells were incubated in a CO2 incubator overnight at 37° C., Compound (I) which had been appropriately diluted with a culture medium was added to each well in an amount of 0.25 ml.
The cells were further incubated in the CO2 incubator for 72 hours, and the culture supernatant was removed. Then, the cells were dispersed in a solution of trypsin and EDTA, and recovered. The number of the cells was counted using a cell counter. The concentration of Compound (I) at which the growth of the cells is inhibited by 50% was calculated by comparing the number of untreated cells with the number of the cells treated with Compound (I) at known concentrations, and the value was defined as IC50.

[5] = tested on: ddY-strain male mice; assay: Acute toxicity (minimum lethal dose); format: in vivo; conditions: intravenous, mortality at 14 days after administration
Protocol: Compound (I) was intravenously administered to ddY-strain male mice each weighing 20±1 g. MLD (minimum lethal dose) was determined by observing the mortality at 14 days after administration.

[6] = HeLa S3, 72 hours, 37° C., cell counter, read-out: IC50, growth inhibition of HeLaS3 cells
[7] = Sarcoma-180, 168 h, dose 2.0 mg/kg, intravenous, one day after implantation, read-out: T/C (average tumor volume treated / control)
[8] = Sarcoma-180, 168 h, dose 4.0 mg/kg, intravenous, one day after implantation, read-out: T/C (average tumor volume treated / control)
[9] = HeLa S3, 72 h, read-out: IC50, growth inhibition of HeLaS3 cells, 72 hours, 37° C., cell counter

Row | SMILES | IC50 [4, 6] [nM] | MLD (minimum lethal dose) [5] [mg/kg] | IC50 [4, 9] [nM] | other results
1 | COC(=O)C1(C)Nc2c(O)cc3c(c2C1=O)C(CCl)CN3C(=O)c1cc2cc(OC)c(OC)c(OC)c2[nH]1 (stereo not drawn) [DC-89A2] | – | – | – | antitumor activity against melanoma B-16 [1]: antitumor activity against melanoma B-16; antibacterial activity against various bacteria [2]: exhibit antibacterial activity against various bacteria
2 | COC(=O)c1c(C)[nH]c2c(OS(C)(=O)=O)cc3c(c12)C(CBr)CN3C(=O)c1cc2cc(OC)c(OC)c(OC)c2[nH]1 (stereo not drawn) [Compound 4] | 4 | – | – | response vs control in vivo at 16 mg/kg ([3]; Sarcoma-180, 168 h, dose 16 mg/kg, intravenous, one day after implantation, read-out: T/C (average tumor volume treated / control)): 20%
3 | COC(=O)c1c(C)[nH]c2c(OC(=O)c3nccnc3N)cc3c(c12)C(CBr)CN3C(=O)/C=C/c1ccc(OC)cc1 (stereo not drawn) [Compound 21] | 0.38 | – | – | –
4 | COC(=O)c1c(C)[nH]c2c(OC(=O)c3cccnc3)cc3c(c12)C(CBr)CN3C(=O)/C=C/c1ccc(OC)cc1 (stereo not drawn) [Compound 16] | 0.4 | – | – | response vs control in vivo at 2 mg/kg [3, 7]: 33%
5 | COC(=O)C1(C)Nc2c(O)cc3c(c2C1=O)CC(Br)CN3C(=O)c1cc2cc(OC)c(OC)c(OC)c2[nH]1 (stereo not drawn) [DC-89B1] | – | – | – | antitumor activity against melanoma B-16 [1]: antitumor activity against melanoma B-16; antibacterial activity against various bacteria [2]: exhibit antibacterial activity against various bacteria
6 | COC(=O)c1c(C)[nH]c2c(OC(=O)NCC(=O)O)cc3c(c12)C(CBr)CN3C(=O)c1cc2cc(OC)c(OC)c(OC)c2[nH]1 (stereo not drawn) [Compound 10] | 0.23 | > 4.0 | – | response vs control in vivo at 4 mg/kg [3, 8]: 10%
7 | COC(=O)c1c(C)[nH]c2c(OC(=O)NN3CCOCC3)cc3c(c12)C(CBr)CN3C(=O)/C=C/c1ccc(OC)cc1 (stereo not drawn) [Compound 20] | 6.7 | – | – | –
8 | COC(=O)c1c(C)[nH]c2c(OC(=O)CSCC(=O)O)cc3c(c12)C(CBr)CN3C(=O)/C=C/c1ccc(OC)cc1 (stereo not drawn) [Compound 33] | – | 2.0 | 0.33 | response vs control in vivo at 2 mg/kg ([3]; Sarcoma-180, iv, 168 h, read-out: T/C (average tumor volume treated / control), dose 2.0 mg/kg, intravenous, one day after implantation): 17%
9 | CNN(C)C(=O)Oc1cc2c(c3c(C(=O)OC)c(C)[nH]c13)C(CBr)CN2C(=O)/C=C/c1ccc(OC)cc1 (stereo not drawn) [Compound 38] | – | 4.0 | 1.5 | response vs control in vivo at 4 mg/kg ([3]; Sarcoma-180, iv, 168 h, read-out: T/C (average tumor volume treated / control), dose 4.0 mg/kg, intravenous, one day after implantation): 14%
10 | COC(=O)c1c(C)[nH]c2c(OC(=O)NN(C)C)cc3c(c12)C(CBr)CN3C(=O)/C=C/c1ccc(OC)cc1 (stereo not drawn) [Compound 29] | 0.43 | 2.0 | – | response vs control in vivo at 2 mg/kg [3, 7]: 18%
11 | COC(=O)c1c(C)[nH]c2c(OC(=O)NN3CCC(N4CCCCC4)CC3)cc3c(c12)C(CBr)CN3C(=O)/C=C/c1ccc(OC)cc1 (stereo not drawn) [Compound 32] | – | > 8.0 | 0.8 | response vs control in vivo at 8 mg/kg ([3]; Sarcoma-180, iv, 168 h): 10%
12 | COC(=O)c1c(C)[nH]c2c(OC(=O)CN3CCC(N4CCCCC4)CC3)cc3c(c12)C(CBr)CN3C(=O)/C=C/c1ccc(OC)cc1 (stereo not drawn) [Compound 40] | – | 2.0 | 0.29 | –
13 | COC(=O)c1c(C)[nH]c2c(OC(=O)NN3CCN(C)CC3)cc3c(c12)C(CBr)CN3C(=O)/C=C/c1ccc(OC)cc1 (stereo not drawn) [Compound 18] | – | – | 0.54 | response vs control in vivo at 8 mg/kg ([3]; Sarcoma-180, iv, 168 h): 18%
14 | COC(=O)c1c(C)[nH]c2c(OC(=O)c3ccc(CN)cc3)cc3c(c12)C(CBr)CN3C(=O)/C=C/c1ccc(OC)cc1 (stereo not drawn) [Compound 36] | 1 | – | – | response vs control in vivo at 4 mg/kg [3, 8]: 35%
15 | COC(=O)c1c(C)[nH]c2c(OC(C)=O)cc3c(c12)C(CBr)CN3C(=O)c1cc2cc(OC)c(OC)c(OC)c2[nH]1 (stereo not drawn) [Compound 6] | – | 0.25 | 0.13 | response vs control in vivo at 0.5 mg/kg ([3]; Sarcoma-180, iv, 168 h, read-out: T/C (average tumor volume treated / control), dose 0.50 mg/kg, intravenous, one day after implantation): 18%
16 | COC(=O)c1c(C)[nH]c2c(OC(=O)c3cccc(N(C)C)c3)cc3c(c12)C(CBr)CN3C(=O)/C=C/c1ccc(OC)cc1 (stereo not drawn) [Compound 24] | 0.43 | – | – | response vs control in vivo at 2 mg/kg [3, 7]: 31%
